Legend:
Test in all cases: relative viability (nuclei count vs DMSO), 5 days (fraction); higher = more cells survive
[1] = compound: CN1C=C(C2=CC=CC=C21)/C=C\3/C4=C(C=CC=N4)NC3=O + CC(C)C[C@H](NC(=O)[C@H](Cc1ccccc1)NC(=O)c1cnccn1)B(O)O [Bortezomib] (partner 0.002 µM)
Procedure, shortened: (§1)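 For relative viability, nuclei counts in treated wells were divided by those in vehicle wells. Lung cancer cell lines had been pin-tool dosed in 1536-well plates the day after seeding and cultured for 5 days, then fixed and stained in one step (final 0.05% Triton X-100, 1% formaldehyde, 1 ug/ml Hoechst) and imaged at 4×. Doses were one drug alone or a fixed anchor-drug dose plus five library-drug doses (not always all listed) in √10 steps, and values are duplicate-plate medians.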

[2] = compound: CN1C=C(C2=CC=CC=C21)/C=C\3/C4=C(C=CC=N4)NC3=O + CS(=O)(=O)CCNCc1ccc(-c2ccc3ncnc(Nc4ccc(OCc5cccc(F)c5)c(Cl)c4)c3c2)o1 [Lapatinib] (partner 2 µM)
Procedure, shortened: as §1

Trametinib + AZD7762 = compound: CC(=O)Nc1cccc(-n2c(=O)n(C3CC3)c(=O)c3c(Nc4ccc(I)cc4F)n(C)c(=O)c(C)c32)c1 [Trametinib] + NC(=O)Nc1cc(-c2cccc(F)c2)sc1C(=O)N[C@H]1CCCNC1 [AZD7762] (partner 0.2 µM)
Procedure, shortened: as §1

Trametinib + Foretinib = compound: CC(=O)Nc1cccc(-n2c(=O)n(C3CC3)c(=O)c3c(Nc4ccc(I)cc4F)n(C)c(=O)c(C)c32)c1 [Trametinib] + COc1cc2c(Oc3ccc(NC(=O)C4(C(=O)Nc5ccc(F)cc5)CC4)cc3F)ccnc2cc1OCCCN1CCOCC1 [Foretinib] (partner 0.25 µM)
Procedure, shortened: as §1

Cell Line	relative viability ([1]; first compound 0.02 µM)	relative viability ([1]; first compound 0.06325 µM)	relative viability ([1]; first compound 0.2 µM)	relative viability ([1]; first compound 0.6325 µM)	relative viability ([1]; first compound 2 µM)	relative viability ([2]; first compound 0.02 µM)	relative viability ([2]; first compound 0.06325 µM)	relative viability ([2]; first compound 0.2 µM)	relative viability ([2]; first compound 0.6325 µM)	relative viability ([2]; first compound 2 µM)	relative viability (Trametinib + AZD7762; first compound 0.0025 µM)	relative viability (Trametinib + AZD7762; first compound 0.007906 µM)	relative viability (Trametinib + AZD7762; first compound 0.025 µM)	relative viability (Trametinib + AZD7762; first compound 0.07906 µM)	relative viability (Trametinib + AZD7762; first compound 0.25 µM)	relative viability (Trametinib + Foretinib; first compound 0.0025 µM)	relative viability (Trametinib + Foretinib; first compound 0.007906 µM)	relative viability (Trametinib + Foretinib; first compound 0.025 µM)	relative viability (Trametinib + Foretinib; first compound 0.07906 µM)	relative viability (Trametinib + Foretinib; first compound 0.25 µM)
HOP-62	1.05	0.746	0.285	0.535	0.529	1.28	1.21	0.688	0.882	1.06	0.737	0.461	0.251	0.243	0.211	1.04	0.948	0.623	0.341	0.252
LC-2-ad	1	0.942	0.964	0.971	0.965	0.834	0.935	0.89	1.05	1	0.732	0.584	0.518	0.403	0.406	0.792	0.726	0.57	0.477	0.409
SW 900	–	–	–	–	–	–	–	–	–	–	0.666	0.518	0.575	0.47	0.268	0.79	0.669	0.708	0.698	0.499
NCI-H322M	1.22	1.28	1.22	1.31	1.25	0.566	0.631	0.597	0.548	0.631	0.602	0.436	0.482	0.414	0.425	0.813	0.769	0.677	0.59	0.498
SK-LU-1	0.806	0.892	0.908	0.858	1.39	0.662	0.788	0.854	0.886	1.2	–	–	–	–	–	0.649	0.697	0.505	0.406	0.208
NCI-H1734	0.91	0.851	–	0.859	1.02	1.01	1.01	–	1.02	1.08	0.476	0.451	–	0.509	0.369	0.968	0.781	0.582	0.607	0.446
HCC-44	0.888	0.8	0.858	0.756	0.847	0.912	0.963	0.928	0.834	0.9	0.958	1.07	1.2	1.31	1.05	–	–	–	–	–
NCI-H1703	0.407	0.401	0.258	0.41	0.356	0.962	0.941	1.11	1.25	1.29	0.141	0.126	0.144	0.101	0.112	0.371	0.315	0.357	0.368	0.323
NCI-H2170	–	–	–	–	–	–	0.253	0.233	0.264	0.284	0.878	0.84	–	0.748	0.556	0.973	0.539	0.968	0.963	0.87
NCI-H1395	–	–	–	–	–	0.878	1.01	–	0.948	0.885	0.399	0.377	0.41	0.361	0.367	0.993	0.914	0.852	0.919	0.708
NCI-H1355	1.1	1.16	1.03	0.958	0.983	0.952	0.784	0.7	0.637	0.646	0.747	0.706	0.539	0.599	0.591	0.993	0.725	0.519	0.606	0.488
NCI-H1650	0.189	0.19	0.2	0.19	0.222	0.854	0.793	0.574	0.768	0.842	–	–	–	–	–	1.18	0.857	0.894	0.838	0.506
IA-LM	1	0.873	0.554	0.768	0.696	0.947	0.617	0.546	0.65	0.448	–	–	–	–	–	1.09	0.687	0.351	0.169	0.0888
NCI-H1666	1	0.77	0.542	0.692	0.709	0.781	0.606	0.512	0.599	0.532	0.726	0.735	0.669	0.637	0.665	0.892	0.758	0.709	0.685	0.59
HCC-78	0.41	0.499	0.519	0.432	0.469	0.965	0.288	0.46	0.53	0.689	0.661	0.484	0.393	0.427	0.46	0.515	0.392	0.513	0.443	0.403
H3255	0.935	0.843	0.704	0.701	0.655	0.267	0.269	0.205	0.232	0.209	0.805	0.736	0.8	0.733	0.505	0.794	0.857	0.501	0.728	0.509
NCI-H23	1.02	0.982	–	0.938	1.21	0.926	0.952	–	0.892	0.991	0.256	0.233	0.232	0.158	0.191	0.874	0.675	0.549	0.513	0.343
NCI-H1944	–	–	–	–	–	0.719	0.743	–	0.759	0.727	0.511	0.39	0.344	0.366	0.311	0.811	0.634	0.572	0.461	0.341
EBC-1	0.473	0.524	0.51	0.572	0.494	0.197	0.201	0.177	0.232	0.2	–	–	–	–	–	0.101	0.0972	0.0957	0.0946	0.0905
COR-L 105	0.743	0.749	0.693	0.675	0.811	0.33	0.334	0.362	0.344	0.397	–	–	–	–	–	0.815	1.19	0.489	0.552	0.374
NCI-H1793	–	–	–	–	–	0.912	0.787	0.646	0.448	0.799	0.44	0.466	0.252	0.335	0.264	0.661	0.349	0.393	0.256	0.237
NCI-H1792	0.784	0.977	0.835	–	0.889	0.588	0.96	0.8	–	0.672	0.682	0.552	0.24	0.26	0.133	–	–	–	–	–

Cell Line	relative viability ([1]; first compound 0.02 µM)	relative viability ([1]; first compound 0.06325 µM)	relative viability ([1]; first compound 0.2 µM)	relative viability ([1]; first compound 0.6325 µM)	relative viability ([1]; first compound 2 µM)	relative viability ([2]; first compound 0.02 µM)	relative viability ([2]; first compound 0.06325 µM)	relative viability ([2]; first compound 0.2 µM)	relative viability ([2]; first compound 0.6325 µM)	relative viability ([2]; first compound 2 µM)	relative viability (Trametinib + AZD7762; first compound 0.0025 µM)	relative viability (Trametinib + AZD7762; first compound 0.007906 µM)	relative viability (Trametinib + AZD7762; first compound 0.025 µM)	relative viability (Trametinib + AZD7762; first compound 0.07906 µM)	relative viability (Trametinib + AZD7762; first compound 0.25 µM)	relative viability (Trametinib + Foretinib; first compound 0.0025 µM)	relative viability (Trametinib + Foretinib; first compound 0.007906 µM)	relative viability (Trametinib + Foretinib; first compound 0.025 µM)	relative viability (Trametinib + Foretinib; first compound 0.07906 µM)	relative viability (Trametinib + Foretinib; first compound 0.25 µM)
SW 1573	1.02	0.904	1.11	1.11	1	1.17	0.905	0.921	1.07	1.18	–	–	–	–	–	0.876	0.723	0.616	0.513	0.152
COR-L23	1.01	0.953	1.19	0.866	1.04	0.973	0.92	1.16	0.923	1.12	–	–	–	–	–	1.05	1.04	0.953	0.777	0.45
A549	–	–	–	–	–	1.08	0.873	0.91	0.932	1.05	–	–	–	–	–	0.817	0.594	0.534	0.178	0.0763
ChaGo-K-1	0.902	0.94	–	0.987	0.979	–	–	–	–	–	0.909	0.859	0.793	0.781	0.807	0.805	0.908	0.839	0.839	0.687
NCI-H2023	1.09	0.903	0.268	0.958	1.04	0.709	0.739	0.222	0.652	0.684	–	–	–	–	–	0.795	0.472	0.497	0.35	0.302
NCI-H441	0.744	–	0.545	0.602	0.774	–	–	–	–	–	1.15	0.972	0.734	0.658	0.618	1.03	1.01	0.699	0.742	0.703
NCI-H2342	–	–	–	–	–	–	–	–	–	–	0.487	0.437	0.318	0.411	0.559	1.05	0.911	–	0.908	0.997
SK-MES-1	–	–	–	–	–	0.451	0.427	0.447	0.454	0.428	–	–	–	–	–	0.913	0.476	0.638	0.566	0.347
NCI-H1648	–	–	–	–	–	–	–	–	–	–	0.69	0.716	0.879	0.78	0.441	–	–	–	–	–
NCI-H2009	1.01	0.963	0.963	1.07	1	0.996	0.965	1.02	0.947	0.898	–	–	–	–	–	1.05	0.708	0.351	0.279	0.302
NCI-H661	0.775	0.735	0.691	0.727	0.878	0.601	0.574	0.46	0.427	0.54	–	–	–	–	–	0.941	1	0.794	0.751	0.62
NCI-H520	0.6	0.432	0.653	0.578	0.667	0.741	0.86	0.841	0.981	0.937	–	–	–	–	–	0.874	0.785	0.866	0.739	0.585
NCI-H1563	1.05	0.827	0.753	0.838	0.852	1.2	0.977	0.912	0.926	1.02	–	–	–	–	–	0.953	0.815	0.807	0.804	0.694
NCI-H522	–	–	–	–	–	–	–	–	–	–	0.875	1.01	0.703	0.69	0.88	–	–	–	–	–
NCI-H1623	–	–	–	–	–	–	–	–	–	–	–	–	–	–	–	0.782	0.591	0.532	0.437	0.727
NCI-H2228	0.882	0.834	–	0.887	1.19	1.24	0.88	–	1.02	0.972	–	–	–	–	–	0.911	0.761	0.811	0.571	0.4
LK-2	–	–	–	–	–	–	0.568	–	0.756	1.03	0.347	0.544	0.288	0.259	0.12	1.07	1.19	1.11	1.2	0.859
NCI-H1299	1.05	0.957	0.965	1.06	0.988	0.979	0.974	0.989	1.03	0.979	–	–	–	–	–	1.07	1.2	1.01	0.794	0.481
NCI-H358	–	–	–	–	–	0.46	0.419	0.436	0.55	0.446	0.388	0.39	0.331	0.264	0.292	0.49	0.302	0.264	0.18	0.166
LCLC-103H	0.951	0.984	0.994	1.22	1.11	–	–	–	–	–	0.835	0.69	0.611	0.758	0.644	0.745	0.637	0.537	0.621	0.429
Calu-6	0.985	0.923	0.87	0.946	1.04	1.15	1	1	0.968	1.01	–	–	–	–	–	0.835	0.503	0.418	0.12	0.131
